Test results as given in patent US20240067693A1, “POLYPEPTIDES AND USES THEREOF” (MEDIMMUNE LIMITED, priority 2020, published 2024).
Numbered stars: 1 amine (or outer) side, 2 acyl side, 3 side chain; on linkers, the order of the positions; unused ones are H or OH. Bridge positions count the residues as written; N and C are the ends. Square brackets hold non-standard residues; d marks the D form. Side chains are listed from the residue outwards. Peptide text beside a SMILES is read from it. * marks the point of attachment. C20 diacid = O=C(O)CCCCCCCCCCCCCCCCCCC(=O)*; C18 diacid = O=C(O)CCCCCCCCCCCCCCCCC(=O)*; γGlu = O=C(O)[C@H](CCC(=O)[*:2])N[*:1]; αMeF = C[C@](N)(Cc1ccccc1)C(=O)O

Tests used:
[1] = molecular target: T1, human amylin receptor (calcitonin receptor co-expressed with receptor activity modifying protein, RAMP3) (hAMYR3) (Homo sapiens, UniProt O60896+P30988); experiment: cAMP production in 1321N1 cells with stable recombinant expression of human amylin receptor (hAMYR3); assay type: cell-based; conditions: for Ratio (selectivity hAMYR vs hCTR, ratio of EC50 values at the two receptors): EC50 hCTR / EC50 hAMYR3; for EC50: cAMP, 1321N1 cells, assay buffer with 0.1% BSA, read-out: EC50 (pM) hAMYR3
T1 construct: expressed in transfected cells
T1 sequence (P30988 25-474): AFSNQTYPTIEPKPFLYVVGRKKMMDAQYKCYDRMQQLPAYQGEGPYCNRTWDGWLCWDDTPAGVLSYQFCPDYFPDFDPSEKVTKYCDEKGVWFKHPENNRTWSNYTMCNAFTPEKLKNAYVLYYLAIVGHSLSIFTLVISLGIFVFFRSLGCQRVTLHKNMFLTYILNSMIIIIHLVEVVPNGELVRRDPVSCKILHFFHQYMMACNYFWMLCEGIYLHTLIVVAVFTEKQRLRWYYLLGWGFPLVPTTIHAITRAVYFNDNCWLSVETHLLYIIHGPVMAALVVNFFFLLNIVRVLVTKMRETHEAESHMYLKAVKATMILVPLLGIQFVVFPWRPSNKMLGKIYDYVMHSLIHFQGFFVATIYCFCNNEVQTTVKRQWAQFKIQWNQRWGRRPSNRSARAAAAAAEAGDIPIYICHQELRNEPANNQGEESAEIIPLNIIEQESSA
T1 sequence (O60896 24-148 partner): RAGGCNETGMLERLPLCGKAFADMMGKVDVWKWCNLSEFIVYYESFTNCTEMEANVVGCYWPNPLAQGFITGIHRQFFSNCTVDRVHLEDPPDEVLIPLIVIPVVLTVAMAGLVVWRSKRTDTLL
Procedure: (§1) The functional activities of lipidated pramlintide analogue peptides, such as cAMP production, were tested in 1321N1 cell line with stable recombinant expression of human calcitonin receptor (hCTR) or human amylin receptor (calcitonin receptor co-expressed with receptor activity modifying protein, RAMP3) (hAMYR3) or HEK cells with stable recombinant expression of rat calcitonin receptor (rat CTR) or rat amylin receptor (calcitonin receptor co-expressed with receptor activity modifying protein, RAMP3) (Rat AMYR3).
(§2) Cryopreserved cell stock was thawed rapidly in a water-bath, suspended in assay buffer (0.1% BSA (Sigma # A3059) in HBSS (Sigma # H8264) with 25 mM HEPES, pH 7.4 and containing 0.5 mM IB MX (Sigma# 17018)) and spun at 240×g for 5 minutes. Cells were re-suspended in assay buffer at a batch-dependent optimized concentration (e.g. hCTR cells at 0.125×10^5 cells/mL, hAMYR3 cells at 0.125×10^5 cells/mL, rat CTR cells at 1x10^5 cells/mL, rat AMYR3 at 2×10^5 cells/mL).
(§3) The test peptide stock was prepared in DMSO and diluted in assay buffer to reach stated concentrations and transferred in duplicates into a 384-black shallow well microtitre assay plate (Corning # 3676). Cells were added to the assay plate, incubated at room temperature for 30 minutes and the cAMP level measured using cAMP dynamic 2 HTRF kit (Cisbio, Cat # 62AM4PEJ), following the two step protocol as per manufacturer's recommendations. The plates were read on an Envision (Perkin Elmer) using excitation wavelength of 320 nm and emission wavelengths of 620nm & 665 nm.
(§4) Data was transformed to % Delta F as described in the manufacturer's guidelines and analyzed as percent activation of maximal amylin or calcitonin effect by 4-parameter logistic fit to determine EC50 values. The selectivity of a peptide to hAMYR vs hCTR is defined as a ratio of EC50 values at the two receptors.

[2] = molecular target: T2, human calcitonin receptor (hCTR) (Homo sapiens, UniProt P30988); experiment: cAMP production in 1321N1 cells with stable recombinant expression of human calcitonin receptor (hCTR); assay type: cell-based; conditions: cAMP, 1321N1 cells, assay buffer with 0.1% BSA; read-out: EC50 (pM) hCTR
T2 construct: expressed in transfected cells
T2 sequence (P30988 25-474): T1 sequence (P30988 25-474)
Procedure: as §1, §2, §3, §4

Ratio (selectivity hAMYR vs hCTR, ratio of EC50 values at the two receptors) [1] | EC50 [1] [pM] | EC50 [2] [pM] | Compound
12 |  |  | CC[C@H](C)[C@H](NC(=O)[C@@H]1CCCN1C(=O)CNC(=O)[C@H](Cc1ccccc1)NC(=O)[C@H](CC(N)=O)NC(=O)[C@H](CC(N)=O)NC(=O)[C@H](CO)NC(=O)[C@H](CO)NC(=O)[C@H](Cc1c[nH]cn1)NC(=O)[C@@H](NC(=O)[C@H](CC(C)C)NC(=O)[C@H](Cc1ccccc1)NC(=O)[C@H](CC(N)=O)NC(=O)[C@H](C)NC(=O)[C@H](CC(C)C)NC(=O)[C@H](CCCNC(=N)N)NC(=O)[C@H](CCC(N)=O)NC(=O)[C@@H](NC(=O)[C@H](C)NC(=O)[C@@H]1CSSC[C@H](NC(=O)[C@@H](N)CCCCNC(=O)CC[C@H](NC(=O)CC[C@H](NC(=O)CCCCCCCCCCCCCCCCCCC(=O)O)C(=O)O)C(=O)O)C(=O)N[C@@H](CC(N)=O)C(=O)N[C@@H]([C@@H](C)O)C(=O)N[C@@H](C)C(=O)N[C@@H]([C@@H](C)O)C(=O)N1)[C@@H](C)O)C(C)C)C(=O)N[C@@H](CC(C)C)C(=O)N1CCC[C@H]1C(=O)N1CCC[C@H]1C(=O)N[C@H](C(=O)N[C@@H](CC(N)=O)C(=O)N[C@H](C(=O)NCC(=O)N[C@@H](CO)C(=O)N[C@@H](CCCNC(=N)N)C(=O)N[C@H](C(=O)N[C@@H](Cc1ccc(O)cc1)C(N)=O)[C@@H](C)O)C(C)C)[C@@H](C)O [Peptide 114] (H-K([γGlu-γGlu-C20 diacid])CNTATCATQRLANFLVHSSNNFGPILPPTNVGSRTY-NH2; disulfide 2-7 (inferred))
11 |  |  | CC[C@H](C)[C@H](NC(=O)[C@H](C)NC(=O)[C@@H]1CCCN1C(=O)[C@H](Cc1ccccc1)NC(=O)[C@H](CC(N)=O)NC(=O)[C@@H]1CCCN1C(=O)[C@H](CO)NC(=O)[C@H](CO)NC(=O)[C@H](Cc1c[nH]cn1)NC(=O)[C@@H](NC(=O)[C@H](CC(C)C)NC(=O)[C@H](Cc1ccccc1)NC(=O)[C@H](CC(N)=O)NC(=O)[C@H](C)NC(=O)[C@H](CC(C)C)NC(=O)[C@H](CCCNC(=N)N)NC(=O)[C@H](CCC(N)=O)NC(=O)[C@@H](NC(=O)[C@H](C)NC(=O)[C@@H]1CSSC[C@H](NC(=O)[C@@H](N)CCCCNC(=O)CC[C@H](NC(=O)CC[C@H](NC(=O)CCCCCCCCCCCCCCCCCCC(=O)O)C(=O)O)C(=O)O)C(=O)N[C@@H](CC(N)=O)C(=O)N[C@@H]([C@@H](C)O)C(=O)N[C@@H](C)C(=O)N[C@@H]([C@@H](C)O)C(=O)N1)[C@@H](C)O)C(C)C)C(=O)N[C@@H](CC(C)C)C(=O)N[C@@H](CO)C(=O)N1CCC[C@H]1C(=O)N[C@H](C(=O)N[C@@H](CC(N)=O)C(=O)N[C@H](C(=O)NCC(=O)N[C@@H](CO)C(=O)N[C@@H](CC(N)=O)C(=O)N[C@H](C(=O)N[C@@H](Cc1ccc(O)cc1)C(N)=O)[C@@H](C)O)C(C)C)[C@@H](C)O [Peptide 115] (H-K([γGlu-γGlu-C20 diacid])CNTATCATQRLANFLVHSSPNFPAILSPTNVGSNTY-NH2; disulfide 2-7 (inferred))
6 |  |  | CC[C@H](C)[C@H](NC(=O)[C@H](C)NC(=O)[C@@H]1CCCN1C(=O)[C@H](Cc1ccccc1)NC(=O)[C@H](CC(N)=O)NC(=O)[C@@H]1CCCN1C(=O)[C@H](CO)NC(=O)[C@H](CO)NC(=O)[C@H](Cc1c[nH]cn1)NC(=O)[C@@H](NC(=O)[C@H](CC(C)C)NC(=O)[C@H](Cc1c[nH]c2ccccc12)NC(=O)[C@H](CC(N)=O)NC(=O)[C@H](C)NC(=O)[C@H](CC(C)C)NC(=O)[C@H](CCCNC(=N)N)NC(=O)[C@H](CCC(N)=O)NC(=O)[C@@H](NC(=O)[C@H](C)NC(=O)[C@@H]1CSSC[C@H](NC(=O)[C@@H](N)CCCCNC(=O)CC[C@H](NC(=O)CC[C@H](NC(=O)CCCCCCCCCCCCCCCCCCC(=O)O)C(=O)O)C(=O)O)C(=O)N[C@@H](CC(N)=O)C(=O)N[C@@H](C)C(=O)N[C@@H](C)C(=O)N[C@@H]([C@@H](C)O)C(=O)N1)[C@@H](C)O)C(C)C)C(=O)N[C@@H](CC(C)C)C(=O)N[C@@H](CO)C(=O)N1CCC[C@H]1C(=O)N[C@H](C(=O)N[C@@H](CC(N)=O)C(=O)N[C@H](C(=O)NCC(=O)N[C@@H](CO)C(=O)N[C@@H](CC(N)=O)C(=O)N[C@H](C(=O)N[C@@H](Cc1ccc(O)cc1)C(N)=O)[C@@H](C)O)C(C)C)[C@@H](C)O [Peptide 120] (H-K([γGlu-γGlu-C20 diacid])CNAATCATQRLANWLVHSSPNFPAILSPTNVGSNTY-NH2; disulfide 2-7 (inferred))

Continued, compound first:

Compound | Ratio (selectivity hAMYR vs hCTR, ratio of EC50 values at the two receptors) [1] | EC50 [1] [pM] | EC50 [2] [pM]
CC[C@H](C)[C@H](NC(=O)[C@@H]1CCCN1C(=O)CNC(=O)[C@](C)(Cc1ccccc1)NC(=O)[C@H](CC(N)=O)NC(=O)[C@H](CC(N)=O)NC(=O)[C@H](CO)NC(=O)[C@H](CO)NC(=O)[C@H](Cc1c[nH]cn1)NC(=O)[C@@H](NC(=O)[C@H](CC(C)C)NC(=O)[C@H](Cc1ccccc1)NC(=O)[C@H](CC(N)=O)NC(=O)[C@H](C)NC(=O)[C@H](CC(C)C)NC(=O)[C@H](CCCNC(=N)N)NC(=O)[C@H](CCC(N)=O)NC(=O)[C@@H](NC(=O)[C@H](C)NC(=O)[C@@H]1CSSC[C@H](NC(=O)[C@H](CCCCN)NC(=O)[C@@H](N)CCCCNC(=O)CC[C@H](NC(=O)CCCCCCCCCCCCCCCCC(=O)O)C(=O)O)C(=O)N[C@@H](CC(N)=O)C(=O)N[C@@H]([C@@H](C)O)C(=O)N[C@@H](C)C(=O)N[C@@H]([C@@H](C)O)C(=O)N1)[C@@H](C)O)C(C)C)C(=O)N[C@@H](CC(C)C)C(=O)N1CCC[C@H]1C(=O)N1CCC[C@H]1C(=O)N[C@H](C(=O)N[C@@H](CC(N)=O)C(=O)N[C@H](C(=O)NCC(=O)N[C@@H](CO)C(=O)N[C@@H](CC(N)=O)C(=O)N[C@H](C(=O)N[C@@H](Cc1ccc(O)cc1)C(N)=O)[C@@H](C)O)C(C)C)[C@@H](C)O [Peptide 14, K(γE-C18diacid)K[CNTATC]ATQRLANFLVHSSNN(αMePhe)GPILPPTNVGSNTY-amide] (H-K([γGlu-C18 diacid])KCNTATCATQRLANFLVHSSNN[αMeF]GPILPPTNVGSNTY-NH2; disulfide 3-8; N-terminus assumed) | 6 | 220 | 1350
CC[C@H](C)[C@H](NC(=O)[C@@H]1CCCN1C(=O)CNC(=O)[C@](C)(Cc1ccccc1)NC(=O)[C@H](CC(N)=O)NC(=O)[C@H](CC(N)=O)NC(=O)[C@H](CO)NC(=O)[C@H](CO)NC(=O)[C@H](Cc1c[nH]cn1)NC(=O)[C@H](CCCNC(=N)N)NC(=O)[C@H](CC(C)C)NC(=O)[C@H](Cc1ccccc1)NC(=O)[C@H](CC(N)=O)NC(=O)[C@H](C)NC(=O)[C@H](CC(C)C)NC(=O)[C@H](CCCNC(=N)N)NC(=O)[C@H](CCC(N)=O)NC(=O)[C@@H](NC(=O)[C@H](C)NC(=O)[C@@H]1CSSC[C@H](NC(=O)[C@@H](N)CCCCNC(=O)CC[C@H](NC(=O)CCCCCCCCCCCCCCCCC(=O)O)C(=O)O)C(=O)N[C@@H](CC(N)=O)C(=O)N[C@@H]([C@@H](C)O)C(=O)N[C@@H](C)C(=O)N[C@@H]([C@@H](C)O)C(=O)N1)[C@@H](C)O)C(=O)N[C@@H](CC(C)C)C(=O)N1CCC[C@H]1C(=O)N1CCC[C@H]1C(=O)N[C@H](C(=O)N[C@@H](CCC(=O)O)C(=O)N[C@H](C(=O)NCC(=O)N[C@@H](CO)C(=O)N[C@@H](CC(N)=O)C(=O)N[C@H](C(=O)N[C@@H](Cc1ccc(O)cc1)C(N)=O)[C@@H](C)O)C(C)C)[C@@H](C)O [Peptide 16, K(γE-C18diacid)[CNTATC]ATQRLANFLRHSSNN(αMePhe)GPILPPTEVGSNTY-amide] (H-K([γGlu-C18 diacid])CNTATCATQRLANFLRHSSNN[αMeF]GPILPPTEVGSNTY-NH2; disulfide 2-7; N-terminus assumed) | 9 | 221 | 
